In patent US5372816A, “Trehalostatin and process for the preparation thereof” (Suntory Limited, priority 1989, dated 1994):

What was measured:
Taka-amylase A (yeast) = molecular target: T1, Taka-amylase A (yeast) (Saccharomyces cerevisiae, UniProt P00724); experiment: Enzyme inhibition spectrum: Taka-amylase A (yeast), sucrose substrate; type: biochemical; design: key: ++: ID50 ≤ 1.0 μg; +: ID50 ≥ 1.0 μg; -: no inhibition; conditions: enzyme 100 μg; pH 5.5, 0.1% sucrose; measuring method A
T1 sequence (P00724 20-532): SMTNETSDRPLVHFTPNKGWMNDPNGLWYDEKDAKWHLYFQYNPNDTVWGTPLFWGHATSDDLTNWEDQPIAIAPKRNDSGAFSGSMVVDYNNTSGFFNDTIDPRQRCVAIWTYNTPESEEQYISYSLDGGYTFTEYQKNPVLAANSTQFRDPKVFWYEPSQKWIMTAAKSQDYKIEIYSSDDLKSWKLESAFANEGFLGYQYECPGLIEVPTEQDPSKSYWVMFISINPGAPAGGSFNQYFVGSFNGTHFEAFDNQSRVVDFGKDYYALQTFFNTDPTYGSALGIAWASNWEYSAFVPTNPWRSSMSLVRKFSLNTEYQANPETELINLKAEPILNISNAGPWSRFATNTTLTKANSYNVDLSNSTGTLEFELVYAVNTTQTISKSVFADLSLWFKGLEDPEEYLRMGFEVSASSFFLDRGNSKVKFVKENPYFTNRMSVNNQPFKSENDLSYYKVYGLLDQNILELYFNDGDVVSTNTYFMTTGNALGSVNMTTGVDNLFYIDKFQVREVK
Description: (§1) Each enzyme (200 μl) is incubated with Trehalostatin (0.01-50 μg) in 0.05 M acetate (pH 5-6) or phosphate (pH 6-7) buffer solution at 37° C. for 5 minutes. Then 20 μl of the resulting solution is collected and added with a substrate to a final concentration shown in the Table, making the total volume of the solution 100 μl. The mixture is incubated at 37° C. for 10 minutes and then incubated in a boiling water bath for 3 minutes to terminate the reaction.
(§2) Determination of activity was made by measuring the increase of the product in the reaction system according to the following methods A-C.
(§3) The quantity of Trehalostatin which can effect 50% inhibition of enzyme activity under the above-described conditions was indicated as ID50.
(§4) (A) The glucose produced was determined by the new blood sugar test devised by Boehringer-Mannheim Ltd.

α-glycosidase (yeast) = molecular target: T2, α-glycosidase (yeast) (Saccharomyces cerevisiae, UniProt P53341); experiment: Enzyme inhibition spectrum: α-glycosidase (yeast); type: biochemical; conditions: enzyme 1 μg; pH 7.1, 5 mM P-nitrophenyl glycoside; measuring method A
T2 construct: purchased TOYOBO Co., Ltd; host or cells: yeast
T2 sequence (P53341 whole entry): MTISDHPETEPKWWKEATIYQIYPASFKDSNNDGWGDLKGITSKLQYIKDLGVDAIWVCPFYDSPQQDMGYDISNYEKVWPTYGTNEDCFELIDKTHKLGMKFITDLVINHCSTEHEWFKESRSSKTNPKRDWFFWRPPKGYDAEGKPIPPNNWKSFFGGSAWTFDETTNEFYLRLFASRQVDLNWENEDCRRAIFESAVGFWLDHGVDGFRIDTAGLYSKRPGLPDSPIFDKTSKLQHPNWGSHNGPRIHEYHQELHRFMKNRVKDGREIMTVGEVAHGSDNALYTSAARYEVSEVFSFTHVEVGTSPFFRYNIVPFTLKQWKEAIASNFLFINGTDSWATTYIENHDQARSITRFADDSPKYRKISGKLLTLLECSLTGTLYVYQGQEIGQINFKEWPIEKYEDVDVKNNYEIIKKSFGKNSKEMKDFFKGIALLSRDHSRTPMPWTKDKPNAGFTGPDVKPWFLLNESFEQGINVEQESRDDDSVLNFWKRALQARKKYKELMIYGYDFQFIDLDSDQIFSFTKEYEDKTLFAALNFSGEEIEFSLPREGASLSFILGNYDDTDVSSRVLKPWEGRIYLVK
Description: as §1, §2, §3, §4

[1] = molecular target: T3, Trehalase (bovine colonic mucosa) (Bos taurus, UniProt E1B8N4); experiment: Enzyme inhibition spectrum: trehalase (bovine colonic mucosa); type: biochemical; conditions: enzyme 2500 μg; pH 5.5, 5 mM trehalase; measuring method A
T3 construct: mucosal acetone powder Sigma (M2766); purchased Sigma M2766; host or cells: bovine colonic mucosa, acetone powder
T3 sequence (E1B8N4 24-579): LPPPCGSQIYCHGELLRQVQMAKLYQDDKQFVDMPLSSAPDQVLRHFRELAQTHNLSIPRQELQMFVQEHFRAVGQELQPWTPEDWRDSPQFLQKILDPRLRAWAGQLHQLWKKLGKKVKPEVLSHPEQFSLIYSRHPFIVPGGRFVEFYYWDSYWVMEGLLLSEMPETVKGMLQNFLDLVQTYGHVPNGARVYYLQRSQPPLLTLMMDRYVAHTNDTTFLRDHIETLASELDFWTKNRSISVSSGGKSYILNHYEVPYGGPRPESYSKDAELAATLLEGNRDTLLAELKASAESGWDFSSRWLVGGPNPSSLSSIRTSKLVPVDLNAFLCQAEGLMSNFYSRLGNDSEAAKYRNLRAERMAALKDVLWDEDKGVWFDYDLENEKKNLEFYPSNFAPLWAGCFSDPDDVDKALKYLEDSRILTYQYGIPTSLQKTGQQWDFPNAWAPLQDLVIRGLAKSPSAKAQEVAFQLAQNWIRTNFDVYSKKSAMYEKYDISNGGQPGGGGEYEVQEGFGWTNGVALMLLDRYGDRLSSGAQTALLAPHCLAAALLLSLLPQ
Description: as §1, §2, §3, §4

[2] = test system: Trehalase (Chaetomium aureum); experiment: Enzyme inhibition spectrum: trehalase (Chaetomium aureum); type: biochemical; conditions: enzyme 15 μg; pH 5.5, 5 mM trehalase; measuring method A
Description: as §1, §2, §3, §4

[3] = molecular target: Bacterial saccharifying amylase (Bacillus subtilis, UniProt P00691); experiment: Enzyme inhibition spectrum: bacterial saccharifying amylase; type: biochemical; design: key: ++: ID50 ≤ 1.0 μg; +: ID50 ≥ 1.0 μg; -: no inhibition; conditions: enzyme 4 μg; pH 5.0, 0.5% starch; measuring method C
Chain of Bacterial saccharifying amylase (P00691 42-659): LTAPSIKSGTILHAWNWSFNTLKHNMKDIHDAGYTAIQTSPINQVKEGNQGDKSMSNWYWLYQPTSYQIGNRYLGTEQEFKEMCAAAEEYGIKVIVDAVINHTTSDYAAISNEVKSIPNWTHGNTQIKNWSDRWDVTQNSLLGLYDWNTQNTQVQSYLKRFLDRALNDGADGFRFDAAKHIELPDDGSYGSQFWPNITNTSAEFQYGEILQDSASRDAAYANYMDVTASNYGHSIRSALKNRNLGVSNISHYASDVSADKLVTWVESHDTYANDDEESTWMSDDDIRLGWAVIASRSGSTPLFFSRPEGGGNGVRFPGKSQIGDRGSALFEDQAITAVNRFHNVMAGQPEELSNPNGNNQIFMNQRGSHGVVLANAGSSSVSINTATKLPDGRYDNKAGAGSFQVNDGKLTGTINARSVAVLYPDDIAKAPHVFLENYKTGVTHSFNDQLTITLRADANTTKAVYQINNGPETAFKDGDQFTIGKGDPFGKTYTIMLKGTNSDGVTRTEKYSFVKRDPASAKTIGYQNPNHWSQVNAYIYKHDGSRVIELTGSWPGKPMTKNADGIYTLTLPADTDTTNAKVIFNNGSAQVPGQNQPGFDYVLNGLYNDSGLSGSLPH
Description: as §1, §2, §3
(§5) (C) The increase of an amount of reducing sugar produced was measured according to the method shown in J. A. Thoma et al., The Enzyme, 3rd. ed., Ch. 5, pp. 115-189 (1971).

β-amylase (sweet potato) = molecular target: T4, β-amylase (sweet potato) (Ipomoea batatas, UniProt P10537); experiment: Enzyme inhibition spectrum: β-amylase (sweet potato); type: biochemical; design: key: ++: ID50 ≤ 1.0 μg; +: ID50 ≥ 1.0 μg; -: no inhibition; conditions: enzyme 12.5 μg; pH 5.0, 0.5% starch; measuring method C
T4 construct: purchased Sigma; host or cells: sweet potato
T4 sequence (P10537 whole entry): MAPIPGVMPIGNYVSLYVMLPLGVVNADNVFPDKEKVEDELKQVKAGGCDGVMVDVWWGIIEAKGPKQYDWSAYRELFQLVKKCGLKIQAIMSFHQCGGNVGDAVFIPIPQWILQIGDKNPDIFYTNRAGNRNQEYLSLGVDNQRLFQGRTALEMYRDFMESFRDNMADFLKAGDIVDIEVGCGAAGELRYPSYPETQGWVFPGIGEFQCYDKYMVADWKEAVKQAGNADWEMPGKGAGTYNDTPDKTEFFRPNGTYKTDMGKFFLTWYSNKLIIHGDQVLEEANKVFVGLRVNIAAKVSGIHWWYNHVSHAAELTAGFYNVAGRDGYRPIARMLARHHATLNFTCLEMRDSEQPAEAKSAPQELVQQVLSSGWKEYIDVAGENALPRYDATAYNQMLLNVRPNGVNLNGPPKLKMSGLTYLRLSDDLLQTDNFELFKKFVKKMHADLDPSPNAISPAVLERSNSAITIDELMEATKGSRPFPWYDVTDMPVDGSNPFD
Description: as §1, §2, §3, §5

[4] = molecular target: Bacterial liquefying amylase (Bacillus amyloliquefaciens, UniProt P00692); experiment: Enzyme inhibition spectrum: bacterial liquefying amylase; type: biochemical; design: key: ++: ID50 ≤ 1.0 μg; +: ID50 ≥ 1.0 μg; -: no inhibition; conditions: enzyme 0.4 μg; pH 5.0, 0.5% starch; measuring method C
Chain of Bacterial liquefying amylase (P00692 32-514): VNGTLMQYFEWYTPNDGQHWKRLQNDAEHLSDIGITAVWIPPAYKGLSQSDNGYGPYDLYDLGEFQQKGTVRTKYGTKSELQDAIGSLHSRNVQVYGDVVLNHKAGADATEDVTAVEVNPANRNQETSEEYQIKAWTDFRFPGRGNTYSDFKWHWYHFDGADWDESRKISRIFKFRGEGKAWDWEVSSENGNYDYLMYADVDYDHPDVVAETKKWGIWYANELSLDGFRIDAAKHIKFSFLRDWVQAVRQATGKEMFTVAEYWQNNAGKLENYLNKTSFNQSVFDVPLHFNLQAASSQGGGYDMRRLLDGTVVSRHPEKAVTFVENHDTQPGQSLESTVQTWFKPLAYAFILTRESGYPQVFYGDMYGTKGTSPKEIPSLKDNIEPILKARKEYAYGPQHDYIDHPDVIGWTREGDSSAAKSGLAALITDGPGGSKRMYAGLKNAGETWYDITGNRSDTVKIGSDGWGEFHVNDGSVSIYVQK
Description: as §1, §2, §3, §5

[5] = test system: Carboxymethyl-cellulase (Asp. aculeatus); experiment: Enzyme inhibition spectrum: carboxymethyl-cellulase (Asp. aculeatus); type: biochemical; design: key: ++: ID50 ≤ 1.0 μg; +: ID50 ≥ 1.0 μg; -: no inhibition; conditions: enzyme 100 μg; pH 5.0, 0.5% CM cellulose; measuring method C
Description: as §1, §2, §3, §5

[6] = test system: Trehalase (Aldrichina grahami); experiment: Enzyme inhibition spectrum: trehalase (Aldrichina grahami); type: biochemical
Description: 10 μl of an inhibitor solution and 10 μl of a trehalase solution (trehalase collected from Aldrichina grahami) were mixed. After 5 minutes incubation at 37° C., 80 μl of a 5 mM trehalose and 50 mM phosphate buffer solution (pH 6.5) was added, followed by an additional one-hour incubation at 37° C. Thereafter, 10 μl of a 50% trichloroacetic acid solution was added to terminate the reaction. Glucose formed in the reaction solution was determined by a new blood sugar test manufactured by Boehringer-Mannheim Ltd. The amount of the enzyme was such that absorbance of the wavelength ([…]) used in the glucose determination when conducted according to the above method without adding the inhibitor would become 1.0. The Trehalostatin concentration which can achieve 50% inhibition of enzyme (trehalase) activity in the above determination method was expressed as 1 unit/ml.
as §1, with “The mixture is incubated at 37° C. for 10 minutes and then incubated in a boiling water bath for 3 minutes to terminate the reaction.” left out
as §4

Gluco amylase (almond) = experiment: Enzyme inhibition spectrum: Gluco amylase (almond), salicin substrate; type: biochemical; design: key: ++: ID50 ≤ 1.0 μg; +: ID50 ≥ 1.0 μg; -: no inhibition; conditions: enzyme 10 μg; pH 5.0, 0.5% salicin; measuring method A
Description: as §1, §2, §3, §4

Trehalase (swine kidney) = molecular target: T5, Trehalase (swine kidney) (Sus scrofa, UniProt I3LIR5); experiment: Enzyme inhibition spectrum: trehalase (swine kidney); type: biochemical; conditions: enzyme 1.1 unit (nmol glucose/min); pH 6.5, 5 mM trehalase; measuring method A
T5 construct: purchased Sigma M8778; host or cells: swine kidney
T5 sequence (I3LIR5 24-583): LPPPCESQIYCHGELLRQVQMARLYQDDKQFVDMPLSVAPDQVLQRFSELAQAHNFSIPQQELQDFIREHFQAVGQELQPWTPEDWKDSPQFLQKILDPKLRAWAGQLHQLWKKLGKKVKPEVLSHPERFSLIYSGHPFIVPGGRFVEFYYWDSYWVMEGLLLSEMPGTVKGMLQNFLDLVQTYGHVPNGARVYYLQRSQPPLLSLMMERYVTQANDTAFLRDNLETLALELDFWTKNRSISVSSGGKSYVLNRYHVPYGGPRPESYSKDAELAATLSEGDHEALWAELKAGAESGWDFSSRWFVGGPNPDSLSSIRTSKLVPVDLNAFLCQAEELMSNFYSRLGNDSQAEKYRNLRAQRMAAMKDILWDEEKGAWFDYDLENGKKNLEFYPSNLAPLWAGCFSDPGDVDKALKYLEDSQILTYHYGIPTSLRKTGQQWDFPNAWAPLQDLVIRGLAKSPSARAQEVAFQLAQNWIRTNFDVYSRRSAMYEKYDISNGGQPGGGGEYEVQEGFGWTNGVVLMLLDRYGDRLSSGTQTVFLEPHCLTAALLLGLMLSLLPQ
Description: as §1, §2, §3, §4

[7] = Solubility of Trehalostatin; type: physicochemical
Isoamylase = molecular target: T6, Isoamylase (Pseudomonas amyloderamosa, UniProt P10342); experiment: Enzyme inhibition spectrum: isoamylase; type: biochemical; design: key: ++: ID50 ≤ 1.0 μg; +: ID50 ≥ 1.0 μg; -: no inhibition; conditions: enzyme 100 μg; pH 5.5, 0.5% starch; measuring method C
T6 construct: purchased Shin Nippon Kagaku Co., Ltd
T6 sequence (P10342 27-776): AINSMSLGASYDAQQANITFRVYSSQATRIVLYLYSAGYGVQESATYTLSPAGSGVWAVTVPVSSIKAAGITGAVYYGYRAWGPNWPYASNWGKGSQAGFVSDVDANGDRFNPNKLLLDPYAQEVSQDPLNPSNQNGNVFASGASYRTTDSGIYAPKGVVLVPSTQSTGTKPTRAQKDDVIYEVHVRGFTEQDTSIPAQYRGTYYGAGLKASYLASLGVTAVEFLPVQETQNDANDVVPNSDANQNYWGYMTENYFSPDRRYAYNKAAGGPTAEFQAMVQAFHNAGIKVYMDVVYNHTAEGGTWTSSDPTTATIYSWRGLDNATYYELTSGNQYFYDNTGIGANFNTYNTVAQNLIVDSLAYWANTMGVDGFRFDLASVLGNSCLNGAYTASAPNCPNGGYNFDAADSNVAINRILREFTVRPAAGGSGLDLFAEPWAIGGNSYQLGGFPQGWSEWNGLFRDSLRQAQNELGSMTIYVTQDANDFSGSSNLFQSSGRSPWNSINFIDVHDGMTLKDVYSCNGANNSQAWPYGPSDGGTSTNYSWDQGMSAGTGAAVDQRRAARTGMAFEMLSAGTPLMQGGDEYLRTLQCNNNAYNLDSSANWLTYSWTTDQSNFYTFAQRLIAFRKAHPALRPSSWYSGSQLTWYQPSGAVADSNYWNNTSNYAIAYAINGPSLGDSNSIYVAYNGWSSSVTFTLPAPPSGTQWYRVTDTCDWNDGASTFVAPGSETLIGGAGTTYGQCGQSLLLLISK
Description: as §1, §2, §3, §5

[8] = test system: Gluco amylase (Rhizopus niveus); experiment: Enzyme inhibition spectrum: Gluco amylase (Rhizopus niveus); type: biochemical; design: key: ++: ID50 ≤ 1.0 μg; +: ID50 ≥ 1.0 μg; -: no inhibition; conditions: enzyme 2 μg; pH 5.5, 0.5% starch; measuring method A
Description: as §1, §2, §3, §4

[9] = test system: Invertase (bovine colonic mucosa); experiment: Enzyme inhibition spectrum: invertase (bovine colonic mucosa); type: biochemical; design: key: ++: ID50 ≤ 1.0 μg; +: ID50 ≥ 1.0 μg; -: no inhibition; conditions: enzyme 5000 μg; pH 6.0, 0.1% sucrose; measuring method A
Description: as §1, §2, §3, §4

[10] = molecular target: T7, β-glycosidase (Asp. aculeatus) (Aspergillus aculeatus, UniProt P48825); experiment: Enzyme inhibition spectrum: β-glycosidase (Asp. aculeatus); type: biochemical; conditions: enzyme 15 μg; pH 5.0, 0.5% salicin; measuring method A
T7 construct: a crude enzyme (prepared by University of Osaka Prefecture); host or cells: Aspergillus aculeatus
T7 sequence (P48825 20-860): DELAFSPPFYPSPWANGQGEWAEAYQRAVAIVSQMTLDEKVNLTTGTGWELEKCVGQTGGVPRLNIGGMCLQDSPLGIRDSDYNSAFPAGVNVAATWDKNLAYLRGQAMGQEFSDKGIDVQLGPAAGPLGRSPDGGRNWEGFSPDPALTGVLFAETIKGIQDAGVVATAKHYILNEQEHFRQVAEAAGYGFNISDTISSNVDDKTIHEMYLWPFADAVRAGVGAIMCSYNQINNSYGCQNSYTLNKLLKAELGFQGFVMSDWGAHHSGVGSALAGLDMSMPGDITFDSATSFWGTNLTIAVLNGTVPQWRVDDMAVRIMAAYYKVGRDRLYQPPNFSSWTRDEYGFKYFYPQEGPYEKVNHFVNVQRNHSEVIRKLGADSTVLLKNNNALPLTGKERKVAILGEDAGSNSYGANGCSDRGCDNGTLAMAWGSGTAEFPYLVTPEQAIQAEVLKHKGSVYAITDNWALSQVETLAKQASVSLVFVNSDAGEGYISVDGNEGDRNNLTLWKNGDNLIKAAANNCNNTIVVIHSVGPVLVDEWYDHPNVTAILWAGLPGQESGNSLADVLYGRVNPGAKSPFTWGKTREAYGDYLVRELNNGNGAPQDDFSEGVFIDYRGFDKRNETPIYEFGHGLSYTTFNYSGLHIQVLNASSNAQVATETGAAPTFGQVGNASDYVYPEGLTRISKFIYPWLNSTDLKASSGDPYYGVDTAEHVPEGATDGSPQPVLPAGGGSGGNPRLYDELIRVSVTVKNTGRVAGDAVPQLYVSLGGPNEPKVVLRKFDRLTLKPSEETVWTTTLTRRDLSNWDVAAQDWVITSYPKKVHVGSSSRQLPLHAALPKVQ
Description: as §1, §2, §3, §4

[11] = test system: avicelase (Asp. aculeatus); experiment: Enzyme inhibition spectrum: avicelase (Asp. aculeatus); type: biochemical; design: key: ++: ID50 ≤ 1.0 μg; +: ID50 ≥ 1.0 μg; -: no inhibition; conditions: enzyme 2000 μg; pH 5.0, 0.5% avicel; measuring method C
Description: as §1, §2, §3, §5

exo-β-1,3-glucanase = experiment: Enzyme inhibition spectrum: exo-β-1,3-glucanase; type: biochemical; design: key: ++: ID50 ≤ 1.0 μg; +: ID50 ≥ 1.0 μg; -: no inhibition; conditions: enzyme 15 μg; pH 6.0, 0.1% laminarin; measuring method B
Description: as §1, §2, §3
(B) An amount of glucose produced was determined according to the method shown in D. R. Barras and B. A. Stone, Biochim. Biophys. Acta, 191, 329 (1969).

Taka-amylase A = molecular target: T8, Taka-amylase A (Aspergillus oryzae, UniProt P0C1B3); experiment: Enzyme inhibition spectrum: Taka-amylase A, starch substrate; type: biochemical; design: key: ++: ID50 ≤ 1.0 μg; +: ID50 ≥ 1.0 μg; -: no inhibition; conditions: enzyme 0.5 μg; pH 5.5, 0.5% starch; measuring method printed 69
T8 construct: purchased SANKYO Co., Ltd
Description: as §1, §2, §3

OC[C@H]1O[C@H](N=C2NC3C(O2)C(O)C(O)C3(O)CO)[C@H](O)[C@@H](O)[C@@H]1O (stereo partly drawn) [Trehalostatin]
Action (ID50) (Taka-amylase A (yeast)): - | Action (ID50) (α-glycosidase (yeast)): + (ID50 ≥ 1.0 μg) | Action (ID50) [1]: + (ID50 ≥ 1.0 μg) | Action (ID50) [2]: + (ID50 ≥ 1.0 μg) | Action (ID50) [3]: - | Action (ID50) (β-amylase (sweet potato)): - | Action (ID50) [4]: - | Action (ID50) [5]: - | Action (ID50) ([6]; enzyme 24 unit (nmol glucose/min), pH 5.5, 5 mM trehalase, measuring method A): ++ (ID50 ≤ 1.0 μg) | inhibitory effect against trehalase in insects ([6]; trehalase in insects, especially Aldrichina grahami, statement in words): effective inhibitory effect against trehalase in insects, especially in Aldrichina grahami, even at a very low concentration | Action (ID50) (Gluco amylase (almond)): - | Action (ID50) (Trehalase (swine kidney)): + (ID50 ≥ 1.0 μg) | Solubility ([7]; in hexane, benzene, ethers and petroleum ether): hardly or only slightly soluble | Solubility ([7]; in water): soluble in water | Action (ID50) (Isoamylase): - | Action (ID50) [8]: - | Action (ID50) [9]: - | Action (ID50) [10]: + (ID50 ≥ 1.0 μg) | Action (ID50) [11]: - | Action (ID50) (exo-β-1,3-glucanase): - | Action (ID50) (Taka-amylase A): -
